In PubChem BioAssay (NCI):
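Each compound was tested at five concentrations against cells in 96-well plates for 48 hours. TGI marks complete inhibition of growth.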 The source made the active and inactive calls. Cut-off read from the data, not from the text of the source: active = GI50 below about 0.43 µM; inactive = the rest.

How the values were obtained:
Assay in all cases: growth of human tumour cells (NCI), 48 h
NCI/ADR-RES ovarian = test system: NCI/ADR-RES ovarian
CAKI-1 renal = test system: CAKI-1 renal
UO-31 renal = test system: UO-31 renal
SNB-78 CNS = test system: SNB-78 CNS
MDA-MB-435 = test system: MDA-MB-435
MDA-MB-231 breast = test system: MDA-MB-231 breast
SF-539 CNS = test system: SF-539 CNS
MOLT-4 leukemia = test system: MOLT-4 leukemia
SN12C renal = test system: SN12C renal
A549 NSCLC = test system: A549 NSCLC
OVCAR-8 ovarian = test system: OVCAR-8 ovarian
IGROV1 ovarian = test system: IGROV1 ovarian
KM12 colon = test system: KM12 colon
K-562 leukemia = test system: K-562 leukemia
NCI-H460 lung = test system: NCI-H460 lung
HS 578T breast = test system: HS 578T breast
COLO 205 colon = test system: COLO 205 colon
NCI-H23 lung = test system: NCI-H23 lung
T-47D breast = test system: T-47D breast
MCF7 breast = test system: MCF7 breast
NCI-H226 lung = test system: NCI-H226 lung
SNB-19 CNS = test system: SNB-19 CNS
SF-268 CNS = test system: SF-268 CNS
OVCAR-3 ovarian = test system: OVCAR-3 ovarian
DLD-1 colon = test system: DLD-1 colon
CCRF-CEM leukemia = test system: CCRF-CEM leukemia
SK-MEL-28 melanoma = test system: SK-MEL-28 melanoma
HT29 colon = test system: HT29 colon
OVCAR-5 ovarian = test system: OVCAR-5 ovarian
U251 CNS = test system: U251 CNS
PC-3 prostate = test system: PC-3 prostate
DU-145 prostate = test system: DU-145 prostate
EKVX NSCLC = test system: EKVX NSCLC
SW-620 colon = test system: SW-620 colon
ACHN renal = test system: ACHN renal
SF-295 CNS = test system: SF-295 CNS
HOP-92 NSCLC = test system: HOP-92 NSCLC
KM20L2 colon = test system: KM20L2 colon
UACC-257 melanoma = test system: UACC-257 melanoma
UACC-62 melanoma = test system: UACC-62 melanoma
HOP-62 NSCLC = test system: HOP-62 NSCLC
RXF 393 renal = test system: RXF 393 renal
M19-MEL melanoma = test system: M19-MEL melanoma
SR leukemia = test system: SR leukemia
TK-10 renal = test system: TK-10 renal
HCT-116 colon = test system: HCT-116 colon
LXFL 529 NSCLC = test system: LXFL 529 NSCLC
HCC-2998 colon = test system: HCC-2998 colon
SK-MEL-5 melanoma = test system: SK-MEL-5 melanoma
M14 melanoma = test system: M14 melanoma
A498 renal = test system: A498 renal
HL-60(TB) leukemia = test system: HL-60(TB) leukemia
SNB-75 CNS = test system: SNB-75 CNS
NCI-H522 lung = test system: NCI-H522 lung
LOX IMVI melanoma = test system: LOX IMVI melanoma
HCT-15 colon = test system: HCT-15 colon
DMS 114 small cell lung = test system: DMS 114 small cell lung
OVCAR-4 ovarian = test system: OVCAR-4 ovarian
SK-MEL-2 melanoma = test system: SK-MEL-2 melanoma
SK-OV-3 ovarian = test system: SK-OV-3 ovarian
RPMI-8226 leukemia = test system: RPMI-8226 leukemia
HOP-18 NSCLC = test system: HOP-18 NSCLC
MALME-3M melanoma = test system: MALME-3M melanoma
786-0 renal = test system: 786-0 renal

## OCCNCN(CNCCO)c1nc(N(CNCCO)CNCCO)nc(N(CNCCO)CNCCO)n1
NCI/ADR-RES ovarian
  outcome: inactive
CAKI-1 renal
  outcome: inactive
UO-31 renal
  TGI: 0.25 µM
SNB-78 CNS
  TGI: 0.203 µM
MDA-MB-435
  outcome: inactive
MDA-MB-231 breast
  outcome: inactive
SF-539 CNS
  outcome: inactive
MOLT-4 leukemia
  TGI: 0.205 µM
  outcome: inactive
SN12C renal
  outcome: inactive
A549 NSCLC
  TGI: 0.257 µM
  outcome: inactive
OVCAR-8 ovarian
  outcome: inactive
IGROV1 ovarian
  outcome: inactive
KM12 colon
  TGI: 0.55 µM
K-562 leukemia
  TGI: 0.15 µM
NCI-H460 lung
  TGI: 0.354 µM
  outcome: inactive
HS 578T breast
  outcome: inactive
COLO 205 colon
  TGI: 0.0877 µM
NCI-H23 lung
  outcome: inactive
T-47D breast
  outcome: inactive
MCF7 breast
  outcome: inactive
NCI-H226 lung
  outcome: inactive
SNB-19 CNS
  outcome: inactive
SF-268 CNS
  outcome: inactive
OVCAR-3 ovarian
  outcome: inactive
DLD-1 colon
  TGI: 0.405 µM
CCRF-CEM leukemia
  TGI: 0.0602 µM
SK-MEL-28 melanoma
  outcome: inactive
HT29 colon
  outcome: inactive
OVCAR-5 ovarian
  outcome: inactive
U251 CNS
  outcome: inactive
PC-3 prostate
  outcome: inactive
DU-145 prostate
  outcome: inactive
EKVX NSCLC
  outcome: inactive
SW-620 colon
  outcome: inactive
ACHN renal
  outcome: inactive
SF-295 CNS
  TGI: 0.147 µM
  outcome: inactive
HOP-92 NSCLC
  outcome: inactive
KM20L2 colon
  TGI: 0.322 µM
UACC-257 melanoma
  outcome: inactive

## CC1(CO)OC(n2cnc3c(N)ncnc32)C(O)C1O (centres undefined)
CAKI-1 renal
  TGI: > 100 µM
UO-31 renal
  TGI: > 100 µM
SF-539 CNS
  TGI: > 100 µM
MOLT-4 leukemia
  TGI: > 100 µM
SN12C renal
  TGI: > 100 µM
A549 NSCLC
  TGI: > 100 µM
OVCAR-8 ovarian
  TGI: > 100 µM
IGROV1 ovarian
  TGI: > 100 µM
UACC-62 melanoma
  TGI: > 100 µM
KM12 colon
  TGI: > 100 µM
HOP-62 NSCLC
  TGI: > 100 µM
K-562 leukemia
  TGI: > 100 µM
NCI-H460 lung
  TGI: > 100 µM
RXF 393 renal
  TGI: > 100 µM
COLO 205 colon
  TGI: > 100 µM
M19-MEL melanoma
  TGI: > 100 µM
NCI-H23 lung
  TGI: > 100 µM
SR leukemia
  TGI: > 100 µM
TK-10 renal
  TGI: > 100 µM
HCT-116 colon
  TGI: > 100 µM
SNB-19 CNS
  TGI: > 100 µM
LXFL 529 NSCLC
  TGI: > 100 µM
HCC-2998 colon
  TGI: > 100 µM
SK-MEL-5 melanoma
  TGI: > 100 µM
SF-268 CNS
  TGI: > 100 µM
OVCAR-3 ovarian
  TGI: > 100 µM
DLD-1 colon
  TGI: > 100 µM
M14 melanoma
  TGI: > 100 µM
CCRF-CEM leukemia
  TGI: > 100 µM
SK-MEL-28 melanoma
  TGI: > 100 µM
A498 renal
  TGI: > 100 µM
HT29 colon
  TGI: > 100 µM
OVCAR-5 ovarian
  TGI: > 100 µM
U251 CNS
  TGI: > 100 µM
HL-60(TB) leukemia
  TGI: > 100 µM
SNB-75 CNS
  TGI: > 100 µM
NCI-H522 lung
  TGI: > 100 µM
LOX IMVI melanoma
  TGI: > 100 µM
SW-620 colon
  TGI: > 100 µM
HCT-15 colon
  TGI: > 100 µM
DMS 114 small cell lung
  TGI: > 100 µM
OVCAR-4 ovarian
  TGI: > 100 µM
ACHN renal
  TGI: > 100 µM
SF-295 CNS
  TGI: > 100 µM
SK-MEL-2 melanoma
  TGI: > 100 µM
HOP-92 NSCLC
  TGI: > 100 µM
SK-OV-3 ovarian
  TGI: > 100 µM
RPMI-8226 leukemia
  TGI: > 100 µM
HOP-18 NSCLC
  TGI: > 100 µM
MALME-3M melanoma
  TGI: > 100 µM
786-0 renal
  TGI: > 100 µM
